Laboratory results taken from ChEMBL document CHEMBL4420078, “Sos1 inhibitors for cancer treatment” (2016).
Calls of active or inactive are those of the source. The calls are words filed in the database; no cut-off is given here.

What was measured:
MIA PaCa-2 = experiment: Effect on total ERK protein levels in overnight serum-starved human MIAPaCa2 cells at 20 to 60 uM incubated for 2 hrs by Western blotting analysis; assay type: ADME, cell-based; conditions: mia paca-2, 2 h
[1] = target: T1, Son of sevenless homolog 1 (Mus musculus) (UniProt Q62245); experiment: Inhibition of SOS1 in overnight serum-starved mouse NIH/3T3 cells assessed as effect on Rac1-GTP levels at 20 to 50 uM pre-incubated for 2 hrs before EGF stimulation for 5 mins by GST-Raf1 effector domain pulldown assay
T1 sequence (whole entry): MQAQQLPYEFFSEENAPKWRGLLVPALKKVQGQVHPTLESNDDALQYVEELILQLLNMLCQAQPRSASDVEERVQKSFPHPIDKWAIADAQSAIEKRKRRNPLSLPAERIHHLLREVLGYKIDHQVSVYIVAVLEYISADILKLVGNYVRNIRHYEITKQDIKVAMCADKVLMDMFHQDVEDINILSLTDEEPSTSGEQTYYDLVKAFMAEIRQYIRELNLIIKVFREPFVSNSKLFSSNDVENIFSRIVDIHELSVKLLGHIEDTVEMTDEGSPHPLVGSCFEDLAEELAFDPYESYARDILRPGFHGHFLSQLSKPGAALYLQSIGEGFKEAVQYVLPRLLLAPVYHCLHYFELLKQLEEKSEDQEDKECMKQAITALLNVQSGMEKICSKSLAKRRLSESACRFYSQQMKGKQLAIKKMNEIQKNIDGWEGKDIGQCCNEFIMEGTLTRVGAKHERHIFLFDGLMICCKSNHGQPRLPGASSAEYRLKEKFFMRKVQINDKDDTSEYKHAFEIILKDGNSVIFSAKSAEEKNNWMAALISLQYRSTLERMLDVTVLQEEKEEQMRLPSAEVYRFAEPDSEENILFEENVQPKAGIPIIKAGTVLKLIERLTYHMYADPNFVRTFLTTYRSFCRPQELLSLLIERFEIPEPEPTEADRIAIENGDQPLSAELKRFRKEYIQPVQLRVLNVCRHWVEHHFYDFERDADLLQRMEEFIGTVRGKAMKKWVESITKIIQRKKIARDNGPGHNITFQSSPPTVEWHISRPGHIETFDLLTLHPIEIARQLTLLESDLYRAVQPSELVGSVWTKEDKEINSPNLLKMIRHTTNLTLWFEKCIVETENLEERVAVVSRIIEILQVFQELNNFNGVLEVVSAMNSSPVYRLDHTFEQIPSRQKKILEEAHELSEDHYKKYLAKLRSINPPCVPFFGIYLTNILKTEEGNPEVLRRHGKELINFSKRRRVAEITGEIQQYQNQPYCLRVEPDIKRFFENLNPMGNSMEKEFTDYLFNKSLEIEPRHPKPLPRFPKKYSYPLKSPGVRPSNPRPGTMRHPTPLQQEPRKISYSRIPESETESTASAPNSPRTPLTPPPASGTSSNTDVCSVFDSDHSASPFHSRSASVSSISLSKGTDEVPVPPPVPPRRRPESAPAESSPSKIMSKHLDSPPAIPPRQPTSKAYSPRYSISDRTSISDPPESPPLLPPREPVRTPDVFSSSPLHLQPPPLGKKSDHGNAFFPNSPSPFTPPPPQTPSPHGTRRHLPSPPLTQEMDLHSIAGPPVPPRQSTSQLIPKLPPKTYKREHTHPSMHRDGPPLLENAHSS

[2] = target: T2, Son of sevenless homolog 1 (Homo sapiens) (UniProt Q07889); experiment: (§1) Inhibition of N-terminal 6x-His-tagged recombinant human SOS1 catalytic domain (residues 564 to 1049 residues) expressed in Escherichia coli BL21 (DE3) assessed as reduction in 50 nM SOS1-mediated GDP/GTP nucleotide exchange upon 2 uM N-terminal-GST-tagged H-Ras (1 to 166 residues) at 10 uM by BODIPY-FL-GDP dissociation assay
T2 sequence (whole entry): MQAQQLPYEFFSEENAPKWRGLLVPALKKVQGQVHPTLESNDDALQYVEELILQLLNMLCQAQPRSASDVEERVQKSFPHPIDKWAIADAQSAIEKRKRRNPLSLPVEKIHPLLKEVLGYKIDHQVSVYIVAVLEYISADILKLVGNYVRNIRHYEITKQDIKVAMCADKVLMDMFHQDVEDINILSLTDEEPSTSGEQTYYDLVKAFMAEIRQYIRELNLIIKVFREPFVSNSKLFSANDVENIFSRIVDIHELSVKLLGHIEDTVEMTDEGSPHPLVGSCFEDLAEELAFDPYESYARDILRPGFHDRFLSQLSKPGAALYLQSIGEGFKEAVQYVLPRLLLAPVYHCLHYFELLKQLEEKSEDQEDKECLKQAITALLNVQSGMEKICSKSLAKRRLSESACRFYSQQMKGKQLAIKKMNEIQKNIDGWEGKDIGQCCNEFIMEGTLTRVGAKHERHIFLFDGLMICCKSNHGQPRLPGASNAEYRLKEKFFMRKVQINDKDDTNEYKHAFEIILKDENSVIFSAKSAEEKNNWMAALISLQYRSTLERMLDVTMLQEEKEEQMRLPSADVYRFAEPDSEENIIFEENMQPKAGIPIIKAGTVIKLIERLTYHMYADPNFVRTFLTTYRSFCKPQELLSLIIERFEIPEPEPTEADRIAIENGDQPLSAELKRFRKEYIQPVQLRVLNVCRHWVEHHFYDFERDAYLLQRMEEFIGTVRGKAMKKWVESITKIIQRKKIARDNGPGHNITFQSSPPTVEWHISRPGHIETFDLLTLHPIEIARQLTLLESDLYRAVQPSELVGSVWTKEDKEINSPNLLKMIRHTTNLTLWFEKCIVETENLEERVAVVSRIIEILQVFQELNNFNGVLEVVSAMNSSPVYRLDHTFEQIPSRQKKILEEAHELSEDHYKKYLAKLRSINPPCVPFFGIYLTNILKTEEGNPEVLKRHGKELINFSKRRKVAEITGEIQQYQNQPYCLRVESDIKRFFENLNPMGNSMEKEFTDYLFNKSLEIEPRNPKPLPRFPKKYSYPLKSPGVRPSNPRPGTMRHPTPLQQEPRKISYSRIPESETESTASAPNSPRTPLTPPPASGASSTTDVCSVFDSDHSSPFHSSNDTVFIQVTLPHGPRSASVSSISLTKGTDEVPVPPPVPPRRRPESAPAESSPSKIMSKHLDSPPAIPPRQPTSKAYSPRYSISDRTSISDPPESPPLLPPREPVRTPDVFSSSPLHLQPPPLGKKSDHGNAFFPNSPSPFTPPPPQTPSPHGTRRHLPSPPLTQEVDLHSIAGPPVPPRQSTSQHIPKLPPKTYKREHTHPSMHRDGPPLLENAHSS

[3] = target: Intersectin-1 (Homo sapiens) (UniProt Q15811); experiment: as §1, with “ITSN1 DH and PH” for “SOS1 catalytic”, “(1227” for “(residues 564”, “1571” for “1049”, “Cdc42” for “H-Ras”, “182” for “166”
Chain of Intersectin-1 (Homo sapiens) (Q15811 whole entry): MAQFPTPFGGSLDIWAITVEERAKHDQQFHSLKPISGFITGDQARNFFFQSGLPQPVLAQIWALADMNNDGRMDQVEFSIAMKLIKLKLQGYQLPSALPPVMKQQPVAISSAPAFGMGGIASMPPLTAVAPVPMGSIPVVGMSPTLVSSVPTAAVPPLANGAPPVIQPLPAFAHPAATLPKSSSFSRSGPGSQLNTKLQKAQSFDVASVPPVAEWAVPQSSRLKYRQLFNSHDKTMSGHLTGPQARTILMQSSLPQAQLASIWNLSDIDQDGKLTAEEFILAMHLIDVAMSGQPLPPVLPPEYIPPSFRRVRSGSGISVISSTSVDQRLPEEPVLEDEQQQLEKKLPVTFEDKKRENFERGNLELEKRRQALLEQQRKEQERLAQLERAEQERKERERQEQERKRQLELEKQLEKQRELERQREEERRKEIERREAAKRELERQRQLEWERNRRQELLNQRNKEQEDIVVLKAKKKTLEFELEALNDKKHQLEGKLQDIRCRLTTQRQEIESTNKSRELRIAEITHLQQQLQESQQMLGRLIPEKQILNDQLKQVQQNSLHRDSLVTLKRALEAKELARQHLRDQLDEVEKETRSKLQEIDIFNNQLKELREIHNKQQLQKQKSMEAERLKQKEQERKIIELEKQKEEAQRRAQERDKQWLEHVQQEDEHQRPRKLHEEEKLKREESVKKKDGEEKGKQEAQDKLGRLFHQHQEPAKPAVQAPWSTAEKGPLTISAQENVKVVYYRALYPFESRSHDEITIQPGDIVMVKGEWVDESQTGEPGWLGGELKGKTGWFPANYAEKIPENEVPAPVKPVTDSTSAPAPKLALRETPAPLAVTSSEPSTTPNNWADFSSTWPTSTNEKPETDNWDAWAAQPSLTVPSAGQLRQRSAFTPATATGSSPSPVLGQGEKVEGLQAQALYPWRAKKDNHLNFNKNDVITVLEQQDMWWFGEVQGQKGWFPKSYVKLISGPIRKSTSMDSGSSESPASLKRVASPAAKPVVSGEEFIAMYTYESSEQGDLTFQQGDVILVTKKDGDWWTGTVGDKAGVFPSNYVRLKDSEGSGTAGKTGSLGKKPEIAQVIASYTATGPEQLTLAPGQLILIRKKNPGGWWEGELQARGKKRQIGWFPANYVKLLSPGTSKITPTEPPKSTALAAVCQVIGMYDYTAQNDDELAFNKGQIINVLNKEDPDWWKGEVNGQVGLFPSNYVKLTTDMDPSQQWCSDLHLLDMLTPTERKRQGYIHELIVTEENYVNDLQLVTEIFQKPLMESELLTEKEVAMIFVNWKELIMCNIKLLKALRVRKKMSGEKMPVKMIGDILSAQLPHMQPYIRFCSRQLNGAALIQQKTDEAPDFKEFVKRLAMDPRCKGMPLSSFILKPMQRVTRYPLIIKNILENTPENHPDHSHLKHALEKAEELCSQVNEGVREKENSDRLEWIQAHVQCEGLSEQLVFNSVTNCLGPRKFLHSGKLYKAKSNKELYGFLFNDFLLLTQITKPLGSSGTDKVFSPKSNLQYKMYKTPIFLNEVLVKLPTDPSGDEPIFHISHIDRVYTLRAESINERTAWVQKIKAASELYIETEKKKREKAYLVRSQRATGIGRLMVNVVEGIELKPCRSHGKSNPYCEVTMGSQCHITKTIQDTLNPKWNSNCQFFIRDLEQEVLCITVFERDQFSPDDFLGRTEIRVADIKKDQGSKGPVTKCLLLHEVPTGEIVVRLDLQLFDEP

[4] = target: T1, Son of sevenless homolog 1 (Mus musculus); experiment: Inhibition of SOS1 in overnight serum-starved mouse NIH/3T3 cells assessed as reduction in ERK1/2 phosphorylation at 20 to 40 uM pre-incubated for 2 hrs before EGF stimulation for 5 mins by Western blot analysis

Structure (SMILES): O=C1Oc2ccccc2C(=O)/C1=C/N1C(=O)/C(=C/c2ccc([N+](=O)[O-])cc2)SC1=S
- Activity (MIA PaCa-2): Non-Toxic
- inhibition [1]: inactive

Structure (SMILES): O=C(O)c1ccccc1-c1c2ccc3cc(O)ccc3c2oc2c1ccc1cc(=O)ccc12
- inhibition [2]: Active
- inhibition [3]: inactive

Structure (SMILES): O=C(O)c1cc2c3c(c1)C1C=CCC1C(c1ccccc1Cl)N3CC1CC=CC21 (stereo not given)
- inhibition [4]: Active
